Assay results reported in PubChem BioAssay AID602178 (NMMLSC, 2012).
Activity calls are given as the source filed them. How the calls were made is not given here.

Biological target: Lethal factor (Bacillus anthracis) (UniProt P15917)
Assay: Bacillus anthracis LF protease inhibitors, dose response, biochemical, multiplex microsphere, cherry pick 1 compounds (AID 602178)
Settings: multiplex microsphere protease cleavage assay, LF inhibition

Lethal factor (Bacillus anthracis), sequence (P15917 whole entry, looked up): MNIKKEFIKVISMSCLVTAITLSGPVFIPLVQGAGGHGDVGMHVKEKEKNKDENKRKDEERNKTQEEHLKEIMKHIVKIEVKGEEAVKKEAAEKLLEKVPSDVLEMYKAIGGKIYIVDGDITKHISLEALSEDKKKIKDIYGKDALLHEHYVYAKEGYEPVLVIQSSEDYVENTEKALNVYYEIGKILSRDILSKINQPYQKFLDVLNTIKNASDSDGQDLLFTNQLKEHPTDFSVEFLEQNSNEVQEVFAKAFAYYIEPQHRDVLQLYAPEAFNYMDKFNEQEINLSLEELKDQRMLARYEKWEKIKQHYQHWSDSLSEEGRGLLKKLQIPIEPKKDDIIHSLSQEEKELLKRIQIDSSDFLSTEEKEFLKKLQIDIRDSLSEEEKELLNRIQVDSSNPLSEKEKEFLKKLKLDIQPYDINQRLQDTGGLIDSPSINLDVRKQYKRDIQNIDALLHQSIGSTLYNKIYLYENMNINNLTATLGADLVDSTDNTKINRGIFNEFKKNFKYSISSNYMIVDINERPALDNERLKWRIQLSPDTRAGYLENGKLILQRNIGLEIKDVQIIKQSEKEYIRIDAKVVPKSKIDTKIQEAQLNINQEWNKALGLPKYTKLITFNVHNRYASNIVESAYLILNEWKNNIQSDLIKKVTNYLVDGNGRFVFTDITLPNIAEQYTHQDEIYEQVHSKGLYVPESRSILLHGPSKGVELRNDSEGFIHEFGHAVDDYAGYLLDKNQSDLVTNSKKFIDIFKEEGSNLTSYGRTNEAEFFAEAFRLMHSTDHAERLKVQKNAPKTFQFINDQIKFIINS

## Oc1[nH]c(N=C2N=c3ccccc3=N2)c2ccccc12
  EC50: > 20 µM (inactive)
